Data published in US9765115B2, “Inhibitors of metastasis, methods of generating such inhibitors and their therapeutic applications” (Board of Supervisors of Louisiana State University acting …, priority 2011, dated 2017).
Entries after “also recorded” stand apart in the source; their conditions may differ.

Assays:
Format in all cases: cell-based
[1] = tested on: PC-3CTRwt cells; assay: Transepithelial electric resistance (TER)
Method: Cells were plated on Transwell filters (0.4 μm pore size) and grown to confluency in complete medium (RPMI1640 containing 10% fetal bovine serum, 20 mM HEPES and antibiotics). TER of the cultures (in duplicate wells) was measured at several time intervals with EVOM volt-ohm meter as previously described (Shah et al, 2009). The readings were corrected for blank (TER values from the filter in bathing medium). The integrity and cell density of monolayers were carefully monitored.
To examine the effect of calcitonin (CT) on tight junctions (TJs), the transepithelial electric resistance (TER) of polarized PC-3 cells expressing either the vector (PC-3V), CTRwt or CTRΔESS was monitored for 8 hours after CT stimulation (FIG. 2A). Polarized PC-3V, PC-3 CTRwt and PC-3 CTR-ΔESS cells were serum-starved for 4 hours, then treated with or without 50 nM CT. TER was measured with EVOM volt-ohm meter, and results expressed as Ωcm^2±SEM (n=6). […] Since PC-3 cells secrete CT, the expression of CTRwt may have activated CT-CTR axis causing almost 40% reduction of TER in PC-3CTRwt cells.
The effect of CT on TJ functionality was tested by monitoring TER of PC-3CTRwt monolayers. […] Polarized PC-3-CTRwt cells were serum-starved for 4 hours, then treated with or without 50 nM CT. TER was measured with EVOM volt-ohm meter. The results are expressed as TER ±SEM (Ωcm^2±SEM; n=6). […] PCP was determined by diffusion of ˜4 kDa TRITC-conjugated dextran from the upper to the lower chamber in one hour. The results are expressed as μg/ml/hour of TRITC-Dextran diffused ±SEM (n=6; *p<0.05 (−CT v +CT, One way ANOVA and Newman-Keul's test)).
To understand the significance of CT-induced, PKA-dependent disassembly of TJs in PC cell adhesion and invasion, the action of CT was examined on TER, PCP, cell adhesion and invasion in PC-3CTRwt cells in the presence/absence of mPKI. […] Similarly, mPKI abrogated the actions of CT on PCP and invasion (FIGS. 20B and 20C respectively). Next, the adhesion of PC-3CTRwt cells was examined on culture dishes.

[2] = tested on: LNCaP, DU-145 and PC-3M cells; assay: Matrigel in vitro invasion assay; details: 50 nM CT, 48 h
Method: Invasion experiments were conducted in Matrigel™ invasion chambers as previously described (Sabbisetti et al., 2005).
Whether CT produces similar effects in LNCaP, PC-3M and DU-145 cell lines, which endogenously express CTR, was examined as shown in FIG. 1A. FIGS. 9A-9B depict the effect of CT on tight junction (TJ) disruption as measured using TER and PCP in the three prostate cancer cell lines—LNCaP, PC-3M, and DU-145. Cells were serum-starved for 4 hours, then treated with and without 50 nM CT, before measuring TER as described above. In FIG. 9B, cells were treated with and without 50 nM CT, and PCP determined by diffusion of ˜4 kDa TRITC-conjugated dextran from the upper to the lower chamber in one hour. The results are expressed as μg/ml/hour of TRITC-Dextran diffused ±SEM (n=6; *p<0.05 (−CT v +CT, One way ANOVA and Newman-Keul's test)). FIG. 9C depicts effects of CT on cell invasion in the same three cell lines—PC-3M, LNCaP, and DU145. Cells were added to upper insert of invasion chambers with or without 50 nM CT, and cells that passed through the Matrigel™ barrier were counted after 48 h. The results are expressed as mean number of invaded cells per 400× field ±SEM (n=6; *p<0.05).

[3] = tested on: PC-3V cells; assay: Paracellular permeability (PCP), TRITC-dextran diffusion; details: 50 nM CT
Method: (§1) For PCP measurements, cells were grown to confluence on Transwell filters. Tetra methyl rhodamine-dextran (1 mg/ml, ˜4 kDa, Sigma) was added to the upper chamber. Fluorescence of the lower chamber medium was measured in Modulus Microplate Reader (Turner Biosystems) at various time intervals.
(§2) TJs form a barrier that regulates the movement of ions, solutes and growth factors between cells. To detect whether CT affects the barrier, the diffusion of fluorophore-conjugated dextran was measured across polarized PC cell line monolayers, a procedure called paracellular permeability (PCP). FIG. 2B depicts CTR-C PDZ-binding motif mutation and tight junction (TJ) disruption as measured using PCP. Polarized PC-3V, PC-3-CTRwt and PC-3CTRΔESS cells were treated with or without 50 nM CT, and PCP determined by diffusion of ˜4 kDa TRITC-conjugated dextran from the upper to the lower chamber in one hour. The results are expressed as μg/ml/hour of TRITC-Dextran diffused ±SEM (n=6; *p<0.05 (−CT v +CT, One way ANOVA and Newman-Keul's test)). […] In contrast, CTRΔESS expression had little effect on PCP in the presence or absence of CT.

[4] = tested on: PC-3CTRΔESS cells; assay: as above
Method: as §1, §2

For calcitonin [CT], the TER ([1]; 50 nM CT) was “decreased TER even further; also recorded: relatively rapid decline in TER; also recorded: steady, remarkable decline”, the “time at which decline in TER became apparent” value ([1]; 50 nM CT) was ≤ 10 min and the “time to remarkable drop in TER” value ([1]; 50 nM CT) was ≤ 30 min. For the same substance, the “TER at multiple CT concentrations” value ([1]; CT 10 and 100 nM) was “significant decrease”, the invasion [2] was “significantly increased” and the PCP [3] was “did not alter it”. The “PCP at multiple CT concentrations” value ([4]; all tested concentrations) was “did not alter PCP” and the PCP ([4]; presence or absence of 50 nM CT) was “little effect”.
